# Test results reported in patent US8173654B2, “Triazolopyridazine compounds” (Janssen Pharmaceutica N.V., priority 2005, dated 2012).
# Assays:
# c-Met [1] = biological target: T1, c-Met (Homo sapiens, UniProt P08581); test: Cell based ELISA assay for HGF stimulated c-Met phosphorylation in S114 cells; parameters: expressed in transfected cells; host or cells: S114 (murine NIH 3T3 derived); conditions: read-out: c-Met Cell ELISA IC-50
# Procedure: A cell based ELISA assay was developed to evaluate the ability of compounds to inhibit HGF stimulated c-Met phosphorylation in cells.
# S114 cells were seeded to a 96 well tissue culture treated dish at a concentration of 5×10^4 per well. After a 16-20 hour incubation, culture medium was removed and replaced with serum free medium supplemented with 0.5% BSA. Test compound was then added and incubated with the cells for 60 minutes, followed by the addition of 1 μl HGF at […] for 15 minutes. […] Following another 1 hour incubation at room temperature the plates were washed three times with Delfia wash buffer (Perkin Elmer). After the final wash, […] of Delfia enhancer solution (Perkin Elmer) was added and allowed to incubate for 60 minutes. Plates were read on an LJL Analyst instrument (Molecular Devices; Sunnyvale, Calif.) with filter settings of 360 excitation, 620 emission, and 410 dichroic. IC50 values were calculated using Graphpad Prism software (Graphpad Software; San Diego, Calif.).
# Target sequence in this assay (P08581 25-1390): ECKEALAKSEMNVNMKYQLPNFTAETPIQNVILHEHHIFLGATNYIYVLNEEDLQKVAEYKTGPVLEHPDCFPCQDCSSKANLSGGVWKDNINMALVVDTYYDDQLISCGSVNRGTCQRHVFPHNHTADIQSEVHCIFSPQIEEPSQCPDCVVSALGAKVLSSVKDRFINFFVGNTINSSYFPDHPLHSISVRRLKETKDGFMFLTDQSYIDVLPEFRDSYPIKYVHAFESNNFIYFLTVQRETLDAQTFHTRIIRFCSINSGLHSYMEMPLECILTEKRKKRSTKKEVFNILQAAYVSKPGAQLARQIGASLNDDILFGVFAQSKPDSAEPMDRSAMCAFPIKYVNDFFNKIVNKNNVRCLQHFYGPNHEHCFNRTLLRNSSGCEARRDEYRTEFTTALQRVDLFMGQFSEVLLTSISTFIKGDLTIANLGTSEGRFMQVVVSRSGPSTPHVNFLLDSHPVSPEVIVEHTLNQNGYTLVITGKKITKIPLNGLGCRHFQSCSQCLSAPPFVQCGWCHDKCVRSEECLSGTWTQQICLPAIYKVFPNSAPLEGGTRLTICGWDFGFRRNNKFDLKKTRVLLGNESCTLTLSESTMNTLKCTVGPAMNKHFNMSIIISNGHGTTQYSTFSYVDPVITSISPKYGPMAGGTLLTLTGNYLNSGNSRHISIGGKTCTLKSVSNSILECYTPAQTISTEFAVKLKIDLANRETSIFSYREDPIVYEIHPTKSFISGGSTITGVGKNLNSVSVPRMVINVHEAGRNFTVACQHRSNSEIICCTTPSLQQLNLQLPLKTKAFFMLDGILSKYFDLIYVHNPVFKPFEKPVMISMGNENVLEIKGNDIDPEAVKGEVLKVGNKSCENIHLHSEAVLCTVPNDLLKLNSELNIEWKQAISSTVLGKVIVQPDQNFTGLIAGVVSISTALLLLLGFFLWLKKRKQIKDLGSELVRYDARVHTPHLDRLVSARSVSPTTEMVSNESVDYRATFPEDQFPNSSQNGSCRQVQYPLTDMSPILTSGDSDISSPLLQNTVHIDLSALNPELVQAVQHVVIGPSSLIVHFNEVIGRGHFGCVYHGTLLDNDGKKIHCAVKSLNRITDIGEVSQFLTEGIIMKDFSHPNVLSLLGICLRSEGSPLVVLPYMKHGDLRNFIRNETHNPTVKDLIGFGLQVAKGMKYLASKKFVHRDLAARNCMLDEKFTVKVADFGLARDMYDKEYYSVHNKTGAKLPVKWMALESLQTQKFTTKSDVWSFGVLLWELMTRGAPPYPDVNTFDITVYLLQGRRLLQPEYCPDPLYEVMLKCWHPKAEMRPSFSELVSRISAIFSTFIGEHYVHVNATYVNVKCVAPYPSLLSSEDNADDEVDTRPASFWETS
# c-Met [2] = biological target: T1, c-Met; test: Delfia autophosphorylation kinase assay on the c-Met; type: biochemical; parameters: The purified His6 tagged cytoplasmic domain of c-Met was diluted to a concentration of 500 ng/ml; host or cells: Sf9 insect cells (baculovirus, pFastBacHTa); conditions: His6 tagged cytoplasmic domain of c-Met, 1 μM ATP; read-out: cMet Delfia autophos IC-50
# Procedure: A DELFIA time resolved fluorescence assay was developed for screening of compounds that decreases the autophosphorylation thus the kinase activity of c-Met. The DELFIA assay is non-radioactive. The autophosphorylation of the c-Met is measured by an anti-phosphotyrosine antibody coupled to an Europium tag.
# A major advantage of this format is that it allowed for the development of an autophosphorylation assay using Ni-chelate plates which bind the hexa-his tag on the recombinant Met kinase. The autophosphorylation assay allows one to use a known substrate, Met kinase itself, for the phosphorylation.
# The assay procedure for screening is as follows. The purified His6 tagged cytoplasmic domain of c-Met was diluted to a concentration of 500 ng/ml in enzyme dilution buffer (50 mM Tris-HCl, pH8.0, 0.1% BSA) and dispensed to assay plates at a volume of 50 μl per well. Black opaque HisGrab Nickel coated 96 well plates (Pierce, Rockford, Ill.) were selected for use. Next, 2.5 μl of compound in 40% DMSO was added to test wells, 2.5 μl of 40% DMSO only was added to the negative control wells. The autophosphorylation reaction was initiated upon the addition of 50 μl of reaction buffer, 50 mM Tris-HCl, pH 8.0, 10 mM MgCl2, 0.1 mM Na3VO4, 1 mM DTT, 1 μM ATP. Plates were incubated at room temperature for 1 hour followed by 2 washes with 200 μl/well of PBS. Europium conjugated anti-phosphotyrosine antibody, Eu-PY20 from Perkin Elmer was diluted to 50 ng/ml in Delfia AB buffer (Perkin Elmer, Boston, Mass.), added to the 96 well assay plates at a volume of 100 μl/well, and incubated at room temperature for 2 hours. Assay plates were then washed 4 times each with 200 μl/well of Delfia wash buffer (Perkin Elmer). After the final wash 150 μl of Delfia Enhancement solution (Perkin Elmer) was added to each well of the assay plate and incubated at room temperature for 1 hour. Plates were read on an LJL Analyst instrument (Molecular Devices; Sunnyvale, Calif.) with filter settings of 360 excitation, 620 emission, and 410 dichroic. IC50 values were calculated using Graphpad Prism software (Graphpad Software; San Diego, Calif.).
# Target sequence in this assay (P08581 956-1390 limits assumed): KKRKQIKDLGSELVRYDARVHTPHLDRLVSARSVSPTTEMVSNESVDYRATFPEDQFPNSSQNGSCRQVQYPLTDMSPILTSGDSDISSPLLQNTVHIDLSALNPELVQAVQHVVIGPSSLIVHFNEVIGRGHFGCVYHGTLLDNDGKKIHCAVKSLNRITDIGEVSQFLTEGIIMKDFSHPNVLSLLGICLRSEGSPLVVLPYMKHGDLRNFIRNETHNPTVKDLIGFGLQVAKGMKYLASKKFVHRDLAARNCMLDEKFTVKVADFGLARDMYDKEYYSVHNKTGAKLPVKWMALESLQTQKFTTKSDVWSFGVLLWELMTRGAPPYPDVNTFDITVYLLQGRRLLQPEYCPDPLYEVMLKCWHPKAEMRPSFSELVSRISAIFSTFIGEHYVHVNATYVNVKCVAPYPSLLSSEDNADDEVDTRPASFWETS
Compound,IC50 (c-Met [1]) [nM],IC50 (c-Met [2]) [nM]
"Oc1ccc(Cc2nnc3ccc(-c4cn[nH]c4)nn23)cc1 [Example 3, 4-[6-(1H-Pyrazol-4-yl)-[1,2,4]triazolo[4,3-b]pyridazin-3-ylmethyl]-phenol]",1030,16
"Oc1ccc(Cc2nnc3ccc(-c4ccn[nH]4)nn23)cc1 [Example 5, 4-[6-(2H-Pyrazol-3-yl)-[1,2,4]triazolo[4,3-b]pyridazin-3-ylmethyl]-phenol]",1930,15
"c1cc2c(cc1Cc1nnc3ccc(-c4ccc(N5CCOCC5)nc4)nn13)CCO2 [Example 8, 3-(2,3-Dihydro-benzofuran-5-ylmethyl)-6-(6-morpholin-4-yl-pyridin-3-yl)-[1,2,4]triazolo[4,3-b]pyridazine]",–,243
"O=C(c1cncc(-c2ccc3nnc(Cc4ccc5ncccc5c4)n3n2)c1)N1CCOCC1 [Example 10, Morpholin-4-yl-[5-(3-quinolin-6-ylmethyl-[1,2,4]triazolo[4,3-b]pyridazin-6-yl)-pyridin-3-yl]-methanone]",–,217
"c1cncc(-c2ccc3nnc(Cc4ccc5ncnn5c4)n3n2)c1 [Example 12, 6-Pyridin-3-yl-3-[1,2,4]triazolo[1,5-a]pyridin-6-ylmethyl-[1,2,4]triazolo[4,3-b]pyridazine]",–,56
"Clc1cc(Cc2nnc3ccc(-c4cccnc4)nn23)ccn1 [Example 14, 3-(2-Chloro-pyridin-4-ylmethyl)-6-pyridin-3-yl-[1,2,4]triazolo[4,3-b]pyridazine]",–,> 10000
"c1cc2c(cc1Cc1nnc3ccc(-c4ccc(CN5CCOCC5)o4)nn13)CCO2 [Example 40, 3-(2,3-Dihydro-benzofuran-5-ylmethyl)-6-(5-morpholin-4-ylmethyl-furan-2-yl)-[1,2,4]triazolo[4,3-b]pyridazine]",–,1080
"COc1cnccc1-c1ccc2nnc(Cc3ccc4c(c3)CCO4)n2n1 [Example 41, 3-(2,3-Dihydro-benzofuran-5-ylmethyl)-6-(3-methoxy-pyridin-4-yl)-[1,2,4]triazolo[4,3-b]pyridazine]",–,56
"Oc1ccc(Cc2nnc3ccc(-n4ccnc4)nn23)cc1 [Example 45, 4-(6-Imidazol-1-yl-[1,2,4]triazolo[4,3-b]pyridazin-3-ylmethyl)-phenol]",–,70
"Oc1ccc(Cc2nnc3ccc(-n4cccn4)nn23)cc1 [Example 46, 4-(6-Pyrazol-1-yl-[1,2,4]triazolo[4,3-b]pyridazin-3-ylmethyl)-phenol]",–,227
"O=C(c1ccc(-c2ccc3nnc(Cc4ccc5ncccc5c4)n3n2)s1)N1CCS(=O)(=O)CC1 [Example 54, (1,1-Dioxo-1λ6thiomorpholin-4-yl)-[5-(3-quinolin-6-ylmethyl-[1,2,4]triazolo[4,3-b]pyridazin-6-yl)-thiophen-2-yl]-methanone]",6,–
"Cn1cc(-c2ccc3nnc(Cc4ccc5c(ccc[n+]5[O-])c4)n3n2)cn1 [Example 63, 6-[6-(1-Methyl-1H-pyrazol-4-yl)-[1,2,4]triazolo[4,3-b]pyridazin-3-ylmethyl]-quinoline 1-oxide]",–,600
"c1cnc2ccc(Cc3nnc4ccc(-c5ccc6nn[nH]c6c5)nn34)cc2c1 [Example 78, 6-[6-(3H-Benzotriazol-5-yl)-[1,2,4]triazolo[4,3-b]pyridazin-3-ylmethyl]-quinoline]",–,320
"c1cnc2ccc(Cc3nnc4ccc(-c5ccc6[nH]ccc6c5)nn34)cc2c1 [Example 84, 6-[6-(1H-Indol-5-yl)-[1,2,4]triazolo[4,3-b]pyridazin-3-ylmethyl]-quinoline]",0.9,–
"c1cncc(-c2ccc3nnc(Cc4cccc5ncccc45)n3n2)c1 [Example 91, 5-(6-Pyridin-3-yl-[1,2,4]triazolo[4,3-b]pyridazin-3-ylmethyl)-quinoline]",–,1050

# Further lines, results first:
IC50 (c-Met [1]) [nM],IC50 (c-Met [2]) [nM],Compound
112,8,"c1cnc2ccc(Cc3nnc4ccc(-c5ccncc5)nn34)cc2c1 [Example 6, 6-(6-Pyridin-4-yl-[1,2,4]triazolo[4,3-b]pyridazin-3-ylmethyl)-quinoline]"
2150,111,"c1cc(-c2ccc3nnc(Cc4ccc5c(c4)CCO5)n3n2)ccn1 [Example 7, 3-(2,3-Dihydro-benzofuran-5-ylmethyl)-6-pyridin-4-yl-[1,2,4]triazolo[4,3-b]pyridazine]"
–,172,"c1ccc(-c2ccc3nnc(Cc4ccc5c(c4)CCO5)n3n2)nc1 [Example 19, 3-(2,3-Dihydro-benzofuran-5-ylmethyl)-6-pyridin-2-yl-[1,2,4]triazolo[4,3-b]pyridazine]"
–,23,"Nc1nc2ccc(Cc3nnc4ccc(-c5cccs5)nn34)cc2o1 [Example 21, 6-(6-Thiophen-2-yl-[1,2,4]triazolo[4,3-b]pyridazin-3-ylmethyl)-benzooxazol-2-ylamine]"
–,1780,"c1ccc(Cc2nnc3ccc(-c4cccs4)nn23)cc1 [Example 24, 3-Benzyl-6-thiophen-2-yl-[1,2,4]triazolo[4,3-b]pyridazine]"
–,413,"Fc1ccc(Cc2nnc3ccc(-c4cccs4)nn23)cc1 [Example 26, 3-(4-Fluoro-benzyl)-6-thiophen-2-yl-[1,2,4]triazolo[4,3-b]pyridazine]"
–,8210,"O=[N+]([O-])c1ccc(Cc2nnc3ccc(-c4cccs4)nn23)cc1 [Example 27, 3-(4-Nitro-benzyl)-6-thiophen-2-yl-[1,2,4]triazolo[4,3-b]pyridazine]"
–,1900,"Nc1ccc(Cc2nnc3ccc(-c4cccs4)nn23)cc1 [Example 28, 4(6-Thiophen-2-yl-[1,2,4]triazolo[4,3-b]pyridazin-3-ylmethyl)-phenylamine]"
–,86,"CC(=O)Nc1ccc(Cc2nnc3ccc(-c4cccs4)nn23)cc1 [Example 29, N-[4(6-Thiophen-2-yl-[1,2,4]triazolo[4,3-b]pyridazin-3-ylmethyl)-phenyl]-acetamide]"
–,570,"CCNC(=O)Nc1ccc(Cc2nnc3ccc(-c4cccs4)nn23)cc1 [Example 30, 1-Ethyl-3-[4-(6-thiophen-2-yl-[1,2,4]triazolo[4,3-b]pyridazin-3-ylmethyl)-phenyl]-urea]"
–,305,"O=c1ccc(Cc2nnc3ccc(-c4cccs4)nn23)c[nH]1 [Example 32, 5-(6-Thiophen-2-yl-[1,2,4]triazolo[4,3-b]pyridazin-3-ylmethyl)-1H-pyridin-2-one]"
–,1190,"[O-][n+]1ccc(Cc2nnc3ccc(-c4cccs4)nn23)cc1 [Example 34, 3-(1-Oxy-pyridin-4-ylmethyl)-6-thiophen-2-yl-[1,2,4]triazolo[4,3-b]pyridazine]"
–,2700,"c1csc(-c2ccc3nnc(Cc4ccc5sccc5c4)n3n2)c1 [Example 36, 3-Benzo[b]thiophen-5-ylmethyl-6-thiophen-2-yl-[1,2,4]triazolo[4,3-b]pyridazine]"
–,0.3,"FC(F)(c1ccc2ncccc2c1)c1nnc2ccc(-c3cccs3)nn12 [Example 57, 6-[Difluoro-(6-thiophen-2-yl-[1,2,4]triazolo[4,3-b]pyridazin-3-yl)-methyl]-quinoline]"
–,900,"Clc1ccc2cc(Cc3nnc4ccc(-c5cccnc5)nn34)ccc2n1 [Example 67, 2-Chloro-6-(6-pyridin-3-yl-[1,2,4]triazolo[4,3-b]pyridazin-3-ylmethyl)-quinoline]"
–,17,"Cc1nc2ccc(Cc3nnc4ccc(-c5cnn(C)c5)nn34)cc2s1 [Example 82, 3-(2-Methyl-benzothiazol-6-ylmethyl)-6-(1-methyl-1H-pyrazol-4-yl)-[1,2,4]triazolo[4,3-b]pyridazine]"
–,14,"N#Cc1cncc(-c2ccc3nnc(Cc4ccc5ncccc5c4)n3n2)c1 [Example 83, 5-(3-Quinolin-6-ylmethyl-[1,2,4]triazolo[4,3-b]pyridazin-6-yl)-nicotinonitrile]"
